In ChEMBL document CHEMBL4130562, “Design, Synthesis, and Antibacterial Evaluation of Oxazolidinones with Fused Heterocyclic C-Ring Substructure” (ACS Med Chem Lett, 2017):
Converted amounts (≈) assume the structure as drawn.

Assays:
Type in all cases: functional
Staphylococcus aureus [1] = test: Antibacterial activity against Staphylococcus aureus ATCC 6538P by microbroth dilution method
Staphylococcus aureus [2] = test: Antibacterial activity against Staphylococcus aureus ATCC 33591 by microbroth dilution method
Staphylococcus aureus [3] = test: Antibacterial activity against Staphylococcus aureus ATCC 29213 by microbroth dilution method
Staphylococcus aureus [4] = test: Antibacterial activity against methicillin-resistant Staphylococcus aureus 1201984 by microbroth dilution method
Staphylococcus aureus [5] = test: Antibacterial activity against linezolid-resistant Staphylococcus aureus by microbroth dilution method
Enterococcus faecalis = test: Antibacterial activity against Enterococcus faecalis ATCC 29212 by microbroth dilution method
Enterococcus faecium = test: Antibacterial activity against Enterococcus faecium 19434 by microbroth dilution method
Streptococcus pneumoniae = test: Antibacterial activity against Streptococcus pneumoniae 55143 by microbroth dilution method
Streptococcus pyogenes = test: Antibacterial activity against Streptococcus pyogenes ATCC 19615 by microbroth dilution method
[6] = system: Staphylococcus epidermidis; test: Antibacterial activity against Staphylococcus epidermidis ATCC 14990 by microbroth dilution method
Haemophilus influenzae = test: Antibacterial activity against Haemophilus influenzae ATCC 49247 by microbroth dilution method

Row | Compound | MIC (Staphylococcus aureus [1]) [µg/mL] | MIC (Staphylococcus aureus [2]) [µg/mL] | MIC (Staphylococcus aureus [3]) [µg/mL] | MIC (Staphylococcus aureus [4]) [µg/mL] | MIC (Staphylococcus aureus [5]) [µg/mL] | MIC (Enterococcus faecalis) [µg/mL] | MIC (Enterococcus faecium) [µg/mL] | MIC (Streptococcus pneumoniae) [µg/mL] | MIC (Streptococcus pyogenes) [µg/mL] | MIC [6] [µg/mL] | MIC (Haemophilus influenzae) [µg/mL]
1 | Cl.NC[C@H]1CN(c2ccc(-c3ccc4c(c3)NC(=O)CO4)c(F)c2)C(=O)O1 | 4 | 16 | 8 | 8 | > 32 | 8 | 4 | 4 | 4 | 4 | 4
2 | O=C1COc2c(cccc2-c2ccc(N3C[C@H](CO)OC3=O)cc2F)N1 | 8 (≈ 22.3 µM) | 4 (≈ 11.2 µM) | 2 (≈ 5.58 µM) | 8 (≈ 22.3 µM) | > 32 | 16 (≈ 44.7 µM) | 32 (≈ 89.3 µM) | 8 (≈ 22.3 µM) | 8 (≈ 22.3 µM) | 2 (≈ 5.58 µM) | 1 (≈ 2.79 µM)
3 | CCC(=O)NC[C@H]1CN(c2ccc(-c3ccc4c(c3)NC(=O)CO4)c(F)c2)C(=O)O1 | 0.125 (≈ 0.302 µM) | 0.25 (≈ 0.605 µM) | 0.25 (≈ 0.605 µM) | 0.5 (≈ 1.21 µM) | 1 (≈ 2.42 µM) | 0.25 (≈ 0.605 µM) | 0.06 (≈ 0.145 µM) | 0.5 (≈ 1.21 µM) | 0.25 (≈ 0.605 µM) | 0.125 (≈ 0.302 µM) | 0.25 (≈ 0.605 µM)
4 | O=C1COc2cccc(-c3ccc(N4C[C@H](CO)OC4=O)cc3F)c2N1 | > 32 | > 32 | > 32 | > 32 | > 32 | > 32 | > 32 | > 32 | > 32 | > 32 | > 32
5 | Cc1nc2ccc(-c3ccc(N4C[C@H](CO)OC4=O)cc3F)cc2c(=O)[nH]1 | 0.125 (≈ 0.338 µM) | 0.5 (≈ 1.35 µM) | 0.25 (≈ 0.677 µM) | 0.25 (≈ 0.677 µM) | 2 (≈ 5.41 µM) | 0.5 (≈ 1.35 µM) | 0.25 (≈ 0.677 µM) | 0.25 (≈ 0.677 µM) | 0.25 (≈ 0.677 µM) | 0.125 (≈ 0.338 µM) | 0.5 (≈ 1.35 µM)
6 | O=C1NCCOc2ccc(-c3ccc(N4C[C@H](CO)OC4=O)cc3F)cc21 | 0.25 (≈ 0.671 µM) | 1 (≈ 2.69 µM) | 0.5 (≈ 1.34 µM) | 0.5 (≈ 1.34 µM) | 4 (≈ 10.7 µM) | 0.5 (≈ 1.34 µM) | 0.5 (≈ 1.34 µM) | 0.5 (≈ 1.34 µM) | 0.5 (≈ 1.34 µM) | 0.25 (≈ 0.671 µM) | 1 (≈ 2.69 µM)
7 | O=C1O[C@@H](CO)CN1c1ccc(-c2ccc3oc(=O)[nH]c3c2)c(F)c1 | 0.25 (≈ 0.726 µM) | 32 (≈ 92.9 µM) | 1 (≈ 2.9 µM) | 32 (≈ 92.9 µM) | 4 (≈ 11.6 µM) | 0.5 (≈ 1.45 µM) | 0.25 (≈ 0.726 µM) | 0.125 (≈ 0.363 µM) | 0.125 (≈ 0.363 µM) | < 0.06 | 4 (≈ 11.6 µM)
8 | O=C1COc2ccc(-c3ccc(N4C[C@H](CNC(=O)C5CCC5)OC4=O)cc3F)cc2N1 | 0.125 (≈ 0.284 µM) | 0.5 (≈ 1.14 µM) | 0.5 (≈ 1.14 µM) | 0.5 (≈ 1.14 µM) | 2 (≈ 4.55 µM) | 0.06 (≈ 0.137 µM) | 0.06 (≈ 0.137 µM) | 1 (≈ 2.28 µM) | 1 (≈ 2.28 µM) | 0.25 (≈ 0.569 µM) | 1 (≈ 2.28 µM)
9 | O=C1O[C@@H](CO)CN1c1ccc(-c2ccc3c(c2)NC(=O)C2(CC2)O3)c(F)c1 | < 0.06 | 0.5 (≈ 1.3 µM) | 0.25 (≈ 0.65 µM) | < 0.06 | 2 (≈ 5.2 µM) | 0.125 (≈ 0.325 µM) | < 0.06 | 0.25 (≈ 0.65 µM) | 0.25 (≈ 0.65 µM) | < 0.06 | 0.5 (≈ 1.3 µM)
10 | O=C1O[C@@H](CO)CN1c1ccc(-c2ccc3c(c2)OCCO3)c(F)c1 | 1 (≈ 2.9 µM) | 32 (≈ 92.7 µM) | 4 (≈ 11.6 µM) | 32 (≈ 92.7 µM) | > 32 | 4 (≈ 11.6 µM) | 2 (≈ 5.79 µM) | 0.5 (≈ 1.45 µM) | 0.5 (≈ 1.45 µM) | 0.06 (≈ 0.174 µM) | 8 (≈ 23.2 µM)
